Read-outs that look alike come from different tables or passages of the source.
Assays:
[1] = test system: spiral ganglion neurons (SGNs); assay: Survival of dissociated spiral ganglion neurons in serum-free culture; assay type: cell-based, rat; settings: for survival-promoting effect on SGNs: P5 rat SGNs, 2 days, serum-free medium, neurotrophins 0.1-50 ng/ml
Method: FIG. 1 is a histogram depicting the effects of NT-4/5 on SGN survival. SGNs were prepared from P5 rats, plated and kept for 2 days in serum-free medium in the absence or presence of NT-4/5 at different concentrations. Viable SGNs were identified by labeling with a neurofilament monoclonal antibody (N52), viewed under a Zeiss Axiophot microscope, and counted using a grid ocular reticule covering an area of […]. For each culture, about 10 randomly selected fields were counted. Data were collected from 3 to 5 cultures and normalized as a percentage of the number of viable neurons in the control cultures in each of the experiments. The error bars represent SEM.
FIG. 2 is a histogram depicting the effects of different neurotrophins on SGN survival. SGNs were prepared from P5 rats and maintained for 2 days in serum-free medium without or with different neurotrophins at different concentrations. Quantitation of viable SGNs was made in the same way as in FIG. 1 and the error bars are SEM. […] Difference between NT-3 and NT-4/5 or BDNF was very significant at all doses (P<0.001). No statistical difference was found between NT-4/5 and BDNF except the dose of 0.1 ng/ml (P<0.01).
Identical results (not shown) were also obtained with a different neuronal marker, a monoclonal antibody 3A10 (Furley et al., 1990). SGNs were dissociated from postnatal day 5 (P5) rat cochleae and plated in defined serum-free medium. […] The enzyme was inactivated with a mixture of 0.005% soybean trypsin inhibitor (Sigma) and 0.005% DNase (Worthington) before trituration with 0.05% DNase in Eagle's Basal Medium (“BME”). The dissociated cells were preplated on a 35 mm untreated tissue culture dish for 25 min to enrich the neuronal population. Under these experimental procedures, about 10% of the cell population were spiral ganglion neurons (“SGNs”) as determined by immunocytochemistry with a monoclonal antibody (N52; Boehringer) against neurofilaments (200 kd; Boehringer). […] Cells were plated at a density of 80,000/well. In control cultures about 75% of SGNs died after 2 days, presumably due to a lack of growth factors.

[2] = test system: SGNs in cochlear explants; assay: Protective effects in cochlear explant cultures co-treated with ototoxins, SGN peripheral axon count; assay type: cell-based, rat; settings: for protective effects on SGNs against ototoxins: growth factor added together with ototoxin, data not shown; for neuroprotection of SGNs against sodium salicylate and gentamicin: 20 ng/ml neurotrophin, sodium salicylate 5 mM or gentamicin 3 mM
Method: (§1) FIGS. 9A and 9B depict quantitation of protective effects of NT-4/5 on SGNs (FIG. 9A) and hair cells (FIG. 9B). […] The same experimental procedures were performed as in FIGS. 6A and 6B. The error bars are SEM and ** indicate that as compared to the cultures containing an ototoxin alone, p<0.001. “Con” indicates control culture.
FIG. 10 depicts quantitation of neuroprotection of different neurotrophins against sodium salicylate (Sal) and gentamicin (Gent). […] Sodium salicylate (5 mM) or gentamicin (3 mM) was added either alone or in combination with one of the neurotrophins (20 ng/ml) to 2-day cultures and the cultures were kept for 2 more days. The same experimental procedures were performed as in FIGS. 6A and 6B. […] The error bars are SEM and ** indicate that as compared to the cultures containing an ototoxin alone, p<0.001.
(§2) The protective effect of neurotrophins against ototoxicity was determined in the organotypic cultures of postnatal cochlear explants described in the Examples above. […] A human recombinant neurotrophin (Genentech, Inc.) or other growth factors, alone or in combination, was added to the culture at the same time the ototoxin was added.
(§3) Two days after treatment with ototoxins or co-treatment with ototoxins and neurotrophins (or other growth factors), the cochlear explant cultures were fixed in 4% paraformaldehyde in 0.1 M phosphate buffer (pH 7.4) for 30 min, washed in PBS, and subjected to double histochemical staining of the cochlear explant cultures. After incubation with the monoclonal antibody N52 against neurofilament protein (200 kd) in 1% Triton X100 containing 3% normal goat serum (“NGS”) for 2 days at 4° C., the explants were incubated with a Texas red-conjugated goat anti-mouse secondary antibody (1:70; Cappel) at room temperature for 40 min. The preparations were then stained with FITC-conjugated phalloidin (0.5 μg/ml; Sigma) for 45 min, washed in PBS and mounted in Fluoromount-G (Southern Biotechnology Associates, Birmingham, Ala.) which contains an anti-fading agent.

[3] = test system: hair cells in cochlear explants; assay: Protective effects in cochlear explant cultures co-treated with ototoxins, hair cell count; assay type: cell-based, rat; settings: growth factor added together with ototoxin; data not shown
Method: as §1, §2, §3

[4] = test system: SGNs in cochlear explants
Method: (§4) Cochlear explants were prepared from P3 rats, embedded and cultured in 3-D collagen gels. Ototoxins were added at various concentrations to 2-day cultures for 2 more days. After the preparations were processed for double histochemistry with N52 and phalloidin, they were examined under Zeiss Axiophot epifluorescent microscope. For each culture, SGN peripheral axons and hair cells were counted from 3-4 randomly selected fields in the middle turn of each culture. Data were collected from 6 or more cultures for each of the experimental groups. Two-tailed, unpaired t-test was used for statistical analysis. […] The error bars are SEM and double asterisks (**) indicate significant differences between experimental and control cultures (p<0.001).
(§5) An organotype cochlear explant culture that utilizes a 3-D collagen matrix cultures and maintains its normal, in vivo architecture. Cochleae were dissected from postnatal day 3 (P3) Wistar rats. After spiral ligament and stria vascularis tissues were removed, the remaining cochlear tissue containing the spiral ganglion and organ of Corti was cut into 3 pieces according to the basal, middle and apical turns. The explants were then embedded in a three-dimensional (“3-D”) collagen matrix of a droplet (20 μl) of freshly made collagen gel which was placed on the bottom of a 35 mm Nunc tissue culture dish, modified from what described previously (Gao et al., 1991) as follows. Rat tail collagen (type I, Collaborative Research) was mixed with 10× BME medium and 2% sodium carbonate in a ratio of 10:1:1 and placed on ice just before use. The collagen matrix containing the cochlear explants were incubated at 37° C. for 5-10 min until it gelled. The matrix was then cultured in defined serum-free medium using sufficient medium to cover the explants (2 ml of serum-free medium (BME plus serum-free supplement (Sigma 1-1884), 1% BSA, 2 mM glutamine, and 5 mg/ml glucose; containing no antibiotics). The culture medium was changed every other day thereafter.
(§6) While the neurofilament antibody (Texas red-mediated) labeled the somata and peripheral axons of SGNs, the phalloidin-FITC conjugate stained the stereocillia bundles of hair cells. Three cultures per experimental paradigm were studied in each individual experiment. Three or more separate repetitions of the experiment were conducted to validate the ototoxic effect.
(§7) As the density of the radial peripheral axons of SGNs appeared to be a reliable index of the number of surviving SGNs, the number of the peripheral axons of SGNs from a given length (100 μm) in the middle turn of the cochlea was counted for different experimental groups and plotted in FIG. 6A. Phalloidin-labeled hair cells were also counted in the same way (FIG. 6B).
(§8) Quantitative analysis of the numbers of peripheral axons of SGNs and hair cells in the cochlear explants were performed. The N52 and phalloidin double-labeled cochlear explants were examined under a Zeiss Axiophot epifluorescent microscope. As the density of radial peripheral axons of SGNs reflects the number of surviving SGNs, the number of these axons was counted using a grid ocular reticule covering a distance of 100 μm in the middle turns only. The surviving hair cells were counted in a similar manner. […] For each culture, SGN peripheral axons and hair cells were counted from 3-4 randomly selected fields in the middle turn of each culture.

[5] = test system: hair cells in cochlear explants
Method: as §4, §5, §6, §7, §8

[6] = test system: spiral ganglion neurons (SGNs); assay: Neurotrophin protection of dissociated SGNs against cisplatin neurotoxicity; assay type: cell-based, rat; settings: for protective effects against cisplatin neurotoxicity / protection of SGNs compared with cultures containing cisplatin alone: 10 ng/ml neurotrophin; for protective effects against cisplatin neurotoxicity: cisplatin 1, 2 or 4 μg/ml; for protection of SGNs compared with cultures containing cisplatin alone: 4 μg/ml cisplatin
Source text: Quantitation of viable SGNs was done in the same way as in FIG. 1. The error bars stand for SEM. […] While no difference was found between cultures containing NT-4/5 and cultures containing BDNF, the difference between cultures containing NT-3 and cultures containing NT-4/5 or BDNF was statistically very significant (P<0.001).

trkB receptor = trkB receptor (Homo sapiens, UniProt Q16620); settings: naturally occurring NGF vs BDNF; cited from earlier work
trkC receptor = trkC receptor (Homo sapiens, UniProt Q16288); settings: cited from earlier work
[7] = cited from earlier work

trkC receptor, sequence (Q16288 32-839): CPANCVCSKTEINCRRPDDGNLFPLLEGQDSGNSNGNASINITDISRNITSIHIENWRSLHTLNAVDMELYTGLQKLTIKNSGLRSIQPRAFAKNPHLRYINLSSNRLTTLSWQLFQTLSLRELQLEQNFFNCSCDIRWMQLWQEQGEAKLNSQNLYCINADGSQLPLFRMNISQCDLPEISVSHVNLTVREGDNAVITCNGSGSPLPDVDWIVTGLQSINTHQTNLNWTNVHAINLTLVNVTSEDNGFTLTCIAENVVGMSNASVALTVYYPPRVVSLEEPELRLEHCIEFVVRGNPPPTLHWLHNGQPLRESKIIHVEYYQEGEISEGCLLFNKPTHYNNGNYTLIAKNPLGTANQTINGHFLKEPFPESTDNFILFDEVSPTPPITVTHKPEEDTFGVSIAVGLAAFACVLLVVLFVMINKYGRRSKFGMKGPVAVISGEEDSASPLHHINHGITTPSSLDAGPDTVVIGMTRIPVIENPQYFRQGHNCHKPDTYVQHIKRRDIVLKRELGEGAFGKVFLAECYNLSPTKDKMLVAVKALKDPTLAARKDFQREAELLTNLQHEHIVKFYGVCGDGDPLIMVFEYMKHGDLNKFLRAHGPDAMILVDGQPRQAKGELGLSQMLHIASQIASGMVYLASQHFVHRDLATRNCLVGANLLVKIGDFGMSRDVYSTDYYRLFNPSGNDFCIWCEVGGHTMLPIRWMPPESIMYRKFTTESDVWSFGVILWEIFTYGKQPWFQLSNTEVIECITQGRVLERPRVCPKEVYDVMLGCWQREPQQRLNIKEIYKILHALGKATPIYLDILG
trkB receptor, sequence (Q16620 32-822): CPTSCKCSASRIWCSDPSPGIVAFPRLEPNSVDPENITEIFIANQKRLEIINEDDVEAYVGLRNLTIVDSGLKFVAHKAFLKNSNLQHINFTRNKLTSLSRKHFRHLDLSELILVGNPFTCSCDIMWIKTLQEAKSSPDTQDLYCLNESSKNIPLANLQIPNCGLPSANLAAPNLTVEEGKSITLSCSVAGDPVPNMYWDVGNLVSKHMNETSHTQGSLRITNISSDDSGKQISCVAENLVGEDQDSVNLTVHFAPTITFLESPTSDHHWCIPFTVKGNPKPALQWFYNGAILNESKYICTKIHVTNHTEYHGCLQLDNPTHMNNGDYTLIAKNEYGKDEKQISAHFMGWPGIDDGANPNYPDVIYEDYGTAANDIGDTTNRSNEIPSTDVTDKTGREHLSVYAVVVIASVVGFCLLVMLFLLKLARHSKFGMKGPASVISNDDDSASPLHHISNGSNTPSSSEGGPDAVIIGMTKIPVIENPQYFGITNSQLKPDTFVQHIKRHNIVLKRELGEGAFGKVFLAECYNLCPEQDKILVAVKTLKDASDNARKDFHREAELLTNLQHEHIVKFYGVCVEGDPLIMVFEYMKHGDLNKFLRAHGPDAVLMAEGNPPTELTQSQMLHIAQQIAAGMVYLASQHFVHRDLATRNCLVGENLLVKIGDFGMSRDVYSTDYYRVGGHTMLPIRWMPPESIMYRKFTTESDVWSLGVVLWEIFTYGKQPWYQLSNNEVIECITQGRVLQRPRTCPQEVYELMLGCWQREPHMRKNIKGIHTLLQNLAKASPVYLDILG

In the case of “epidermal growth factor [EGF, growth factor (Collaborative Research)]”, the “survival-promoting effect on SGNs” value [1] was “No survival-promoting effects”, the “protective effects on SGNs against ototoxins” value [2] was “did not show detectable protective effects” and the “protective effects on hair cells against ototoxins” value (from here on “protective effects on hair cells”) [3] was “did not show detectable protective effects”.

In the case of platelet-derived growth factor [PDGF], the “protective effects on SGNs against ototoxins” value [2] was “did not show detectable protective effects” and the “protective effects on hair cells” value [3] was “did not show detectable protective effects”.

With gentamicin the SGNs remaining intact ([4]; 5 mM) was “approximately 40%”, the “damage to SGNs” value ([4]; 0.01 to 0.5 mM) was “not significantly damaged” and the “damage to SGNs” value ([4]; 1-5 mM) was “started to induce SGN degeneration”. For the same compound, the “doses at which damage to SGNs starts” value ([4]; figure legend FIG. 7A) was “higher than 1 mM”, the “effect on hair cells” value ([5]; 0.01 to 0.5 mM) was “a substantial number of hair cells in the cochlea were killed” and the “effect on hair cells” value ([5]; 1-5 mM) was “eliminated virtually all hair cells”.

For basic fibroblast growth factor [βFGF], the “survival-promoting effect on SGNs” value [1] was “No survival-promoting effects”, the “protective effects on SGNs against ototoxins” value [2] was “did not show detectable protective effects” and the “protective effects on hair cells” value [3] was “did not show detectable protective effects”.

With nerve growth factor [NGF] the “survival-promoting effect on SGNs” value [1] was “no detectable effects”, the “protective effects against cisplatin neurotoxicity” value [6] was “did not show any protective effects” and the “neuroprotection of SGNs against sodium salicylate and gentamicin” value (“neuroprotection of SGNs” below) [2] was “did not show any detectable protection”. The “KD at trkB relative to BDNF (fold lower)” value (trkB receptor) was 500-1000 fold and the “KD at trkC relative to NT-3 (fold lower)” value (trkC receptor; naturally occurring NGF vs NT-3) was 500-1000 fold.

In the case of transforming growth factor-α [TGF-α], the “protective effects on SGNs against ototoxins” value [2] was “did not show detectable protective effects” and the “protective effects on hair cells” value [3] was “did not show detectable protective effects”.

For `O=C([O-])c1ccccc1O.[Na+]` [sodium salicylate], the “effect on SGNs and their peripheral axons” value ([4]; 5 mM, added to 2-day cultures for 2 more days) was “massive death of SGNs and degeneration of their peripheral axons”, the “dosage which starts to induce significant damage to SGNs” value ([4]; cochlear explant cultures) was 3 mM and the “SGN degeneration, dose dependence” value ([4]; various concentrations) was “dose dependent”. The “effect on hair cells” value ([5]; 5 mM) was “all hair cells remained intact” and the hair cell loss ([5]; 10 mM) was “no significant hair cell loss”.

In the case of “R31A: NT-3 with mutation at position R31 to alanine”, the “trkC binding of NT-3 mutant” value (trkC receptor; compared with NT-3) is given as “increased trkC binding”.

In the case of “brain-derived neurotrophic factor [BDNF]”, the “survival-promoting effect on SGNs” value [1] was “very significant survival-promoting effects”, the “potency on SGN survival compared with other neurotrophins” value ([1]; concentrations from 1-50 ng/ml) was “equal in potency to NT-4/5” and the “protection of SGNs compared with cultures containing cisplatin alone” value [6] was “very significant protecting effects”. For the same compound, the “protective effects against cisplatin neurotoxicity” value [6] was “Equivalent protective effects” and the “neuroprotection of SGNs” value [2] was “protective effects on SGNs”.

In the case of neurotrophin-3 [NT-3], the “survival-promoting effect on SGNs” value [1] was “significant survival-promoting effect”, the “potency on SGN survival compared with other neurotrophins” value ([1]; all doses (0.1-50 ng/ml)) was “less potent than NT-4/5 or BDNF” and the “potency of protection against cisplatin compared with other neurotrophins” value ([6]; 10 ng/ml) was “less potent compared to NT-4/5 or BDNF”. The “protection of SGNs compared with cultures containing cisplatin alone” value [6] was “very significant protecting effects”, the “protective effects against cisplatin neurotoxicity” value [6] was “significant protective effects” and the “neuroprotection of SGNs” value [2] was “protective effects on SGNs”.

In the case of `[H]/N=C(/N)N[C@H]1[C@H](O)[C@@H](O)[C@H](O[C@@H]2O[C@@H](C)[C@](O)(C=O)[C@H]2O[C@@H]2O[C@@H](CO)[C@H](O)[C@@H](O)[C@@H]2NC)[C@@H](N/C(N)=N\[H])[C@@H]1O` [streptomycin], the “patients developing measurable hearing loss” value ([7]; 1 gram per day for greater than 1 week) is listed as 4 to 15%, the “incidence of vestibular impairment” value ([7]; 1 gram per day) is listed as 25% and the “patients displaying some vestibular impairment” value ([7]; 2 grams daily for 60 to 120 days) is listed as roughly 75%.

For transforming growth factor-β1 [TGF-β1], the “survival-promoting effect on SGNs” value [1] was “No survival-promoting effects”, the “protective effects on SGNs against ototoxins” value [2] was “did not show detectable protective effects” and the “protective effects on hair cells” value [3] was “did not show detectable protective effects”.

In the case of insulin-like growth factor-1 [IGF-1], the “protective effects on SGNs against ototoxins” value [2] was “did not show detectable protective effects” and the “protective effects on hair cells” value [3] was “did not show detectable protective effects”.

— patent publication US6429191B1, “Treatment of hearing impairments” (Genentech, Inc., priority 1996, dated 2002)
